From US4129721A, “A-40104 antibiotics and process for production thereof” (priority 1977, dated 1978)
≈ marks a conversion by molar mass, not a printed value.

How the values were obtained:
Mycoplasma hyorhinis = assay: in vitro broth-dilution studies, mycoplasma; assay type: cell-based
From the text: (§1) The minimal inhibitory concentrations (MIC's) of A-40104 factor A; 19,20-dihydro-A-40104 factor A; and the tetraacetyl derivative of A-40104A against various mycoplasma species, as determined by in vitro broth-dilution studies, are summarized in Table IX.

Mycoplasma synoviae = assay: in vitro broth-dilution studies, mycoplasma; assay type: cell-based
From the text: as §1

Mycoplasma hyopneumoniae = assay: in vitro broth-dilution studies, mycoplasma; assay type: cell-based
From the text: as §1

Mycoplasma gallisepticum = assay: in vitro broth-dilution studies, mycoplasma; assay type: cell-based
From the text: as §1

[1] = system: Streptococcus pneumoniae Park I; assay: experimental bacterial infection in mice; assay type: in vivo; conditions: sc, read-out: ED50 × 2
[2] = system: Bacteroides Melaninogenicus 2736; assay: standard agar-dilution test, anaerobic bacteria; assay type: cell-based; conditions: 2 h
[3] = system: Streptococcus sp. X-66 (Group D); assay: gradient-plate agar-dilution method; assay type: cell-based
[4] = system: Hemophilus influenzae 251; assay: gradient-plate agar-dilution method; assay type: cell-based; conditions: Haemophilus influenzae
[5] = system: Streptococcus sp. 9960 (Group D); assay: gradient-plate agar-dilution method; assay type: cell-based
[6] = system: Peptococcus asaccharolyticus; assay: standard agar-dilution test, anaerobic bacteria; assay type: cell-based; conditions: Peptoniphilus asaccharolyticus, 2 h
[7] = system: Staphylococcus aureus 3055; assay: standard disc-plate assay; assay type: cell-based; conditions: Penicillin-G susceptible, disc diameter 6.35 mm, read-out: Zone Diameters
Experimental: (§2) In one important aspect of this activity, the A-40104 antibiotics inhibit the growth of organisms which are resistant to other antibiotics. In Table IV the standard disc-plate-assay activity of A-40104 factors A and B against representative organisms is summarized. Activity is measured as the diameter (in mm) of the observed zone of inhibition; the diameter of disc used in each case was 6.35 mm.

[8] = system: Staphylococcus aureus 3074; assay: standard disc-plate assay; assay type: cell-based; conditions: Penicillin-G resistant, disc diameter 6.35 mm, read-out: Zone Diameters
Experimental: as §2

[9] = system: Staphylococcus aureus 3130; assay: standard disc-plate assay; assay type: cell-based; conditions: Methicillin resistant, disc diameter 6.35 mm, read-out: Zone Diameters
Experimental: as §2

Diplococcus pneumoniae = assay: standard disc-plate assay; assay type: cell-based; conditions: Streptococcus pneumoniae, disc diameter 6.35 mm, read-out: Zone Diameters
Experimental: as §2

[10] = acute toxicity, intraperitoneal injection in mice; conditions: mouse, in vivo, ip
From the text: A special advantage of the A-40104 antibiotics is that they are relatively nontoxic.

[11] = system: Hemophilus influenzae Laiv.; assay: gradient-plate agar-dilution method; assay type: cell-based; conditions: Haemophilus influenzae
Clostridium perfringens = assay: microbe, parasite or virus in culture; assay type: cell-based
[12] = system: Neisseria gonorrhea Lind.; assay: gradient-plate agar-dilution method; assay type: cell-based

For `C=CC1(C)CC(OC(=O)CO[C@@H]2OC[C@@H](O)[C@H](O)[C@H]2O)C2(C)C(C)CCC3(CCC(=O)C32)C(C)C1O` (stereo partly drawn) [A-40104 factor A, β,D-xylopyranosyl acetal derivative of pleuromutilin], the “minimal inhibitory concentration (MIC)” value (Mycoplasma hyorhinis) was 1.56, the “minimal inhibitory concentration (MIC)” value (Mycoplasma synoviae) was at most 0.78 and the “minimal inhibitory concentration (MIC)” value (Mycoplasma hyopneumoniae) was 0.195. The “minimal inhibitory concentration (MIC)” value (Mycoplasma gallisepticum) was at most 0.78, the ED50 [1] was 21.5 mg/kg and the MIC [2] was 4 µg/mL (≈ 7.83 µM). For the same compound, the MIC [3] was 0.5 µg/mL (≈ 0.979 µM), the MIC [4] was 0.7 µg/mL (≈ 1.37 µM) and the MIC [5] was 70 µg/mL (≈ 137 µM). It also gave an MIC [6] of at most 0.5 µg/mL, a zone of inhibition at 10 µg/disc ([7]; 10 mcg/disc) of 27.2 mm and a zone of inhibition at 100 µg/disc ([7]; 100 mcg/disc) of 31.2 mm. It also gave a zone of inhibition at 10 µg/disc ([8]; 10 mcg/disc) of 25.4 mm, a zone of inhibition at 100 µg/disc ([8]; 100 mcg/disc) of 29.2 mm and a zone of inhibition at 10 µg/disc ([9]; 10 mcg/disc) of 29.2 mm. The zone of inhibition at 100 µg/disc ([9]; 100 mcg/disc) was 34 mm, the zone of inhibition at 10 µg/disc (Diplococcus pneumoniae; 10 mcg/disc) was 14 mm and the zone of inhibition at 100 µg/disc (Diplococcus pneumoniae; 100 mcg/disc) was 20 mm. It also gave an LD50 [10] of over 300 mg/kg, an MIC [11] of 4 µg/mL (≈ 7.83 µM) and an MIC (Clostridium perfringens) of 8 µg/mL (≈ 15.7 µM). The MIC [12] was 0.5 µg/mL (≈ 0.979 µM).
